Test results as given in patent publication US7932284B2, “Indole sulfonamide modulators of progesterone receptors” (Eli Lilly and Company, priority 2006, dated 2011).

Legend:
[1] = biological target: T1, human MR (mineralocorticoid receptor) (Homo sapiens, UniProt P08235); test: MR competition binding assay (HEK293 cell lysate); conditions: 0.25 nM 3H-aldosterone, 293-MR lysate
T1 construct: expressed in transfected cells; host or cells: HEK293
T1 sequence (P08235 1-984): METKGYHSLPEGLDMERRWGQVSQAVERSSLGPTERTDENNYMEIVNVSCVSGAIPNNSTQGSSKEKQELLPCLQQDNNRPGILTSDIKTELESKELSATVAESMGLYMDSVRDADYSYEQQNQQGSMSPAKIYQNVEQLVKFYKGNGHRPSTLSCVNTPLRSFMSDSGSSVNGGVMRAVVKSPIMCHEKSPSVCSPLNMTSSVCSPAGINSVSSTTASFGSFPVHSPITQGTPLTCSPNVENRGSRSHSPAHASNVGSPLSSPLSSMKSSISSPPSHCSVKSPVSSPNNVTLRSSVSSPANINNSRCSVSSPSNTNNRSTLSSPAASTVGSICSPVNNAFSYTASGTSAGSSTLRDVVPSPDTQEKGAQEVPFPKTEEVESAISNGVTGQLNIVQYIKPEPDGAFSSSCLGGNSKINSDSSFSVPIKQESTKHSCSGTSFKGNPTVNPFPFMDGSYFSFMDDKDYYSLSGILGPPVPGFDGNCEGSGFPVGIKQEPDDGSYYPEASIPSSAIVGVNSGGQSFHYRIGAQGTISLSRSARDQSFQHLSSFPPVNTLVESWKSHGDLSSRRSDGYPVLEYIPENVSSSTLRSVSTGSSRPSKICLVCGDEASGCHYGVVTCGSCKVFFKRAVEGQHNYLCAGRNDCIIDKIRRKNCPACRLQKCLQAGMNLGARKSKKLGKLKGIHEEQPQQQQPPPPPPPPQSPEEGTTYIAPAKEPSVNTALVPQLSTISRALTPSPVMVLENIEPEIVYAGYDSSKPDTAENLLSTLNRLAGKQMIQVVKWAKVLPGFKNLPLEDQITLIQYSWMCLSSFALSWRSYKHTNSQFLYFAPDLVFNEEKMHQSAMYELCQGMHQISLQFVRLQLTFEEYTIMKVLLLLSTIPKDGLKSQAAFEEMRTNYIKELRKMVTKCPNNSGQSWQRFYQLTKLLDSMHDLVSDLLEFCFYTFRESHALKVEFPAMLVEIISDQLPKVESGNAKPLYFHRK
Procedure: (§1) Cell lysates from HEK293 cells overexpressing human GR (glucocorticoid receptor), AR (androgen receptor), MR (mineralocorticoid receptor) or PR (progesterone receptor) are used for competition binding assays to determine Ki values for compounds of interest. Briefly, competition binding assays are run in a buffer containing 20 mM HEPES, pH 7.6, 0.2 mM EDTA, 75 mM NaCl, 1.5 mM MgCl2, 20% glycerol, 20 mM sodium molybdate, 0.2 mM DTT, 20 ug/ml aprotinin, and 20 ug/ml leupeptin, using either 0.3 nM ^3H-dexamethasone for GR binding, 0.36 nM ^3H-methyltrienolone for AR binding, 0.25 nM ^3H-aldosterone for MR binding, or 0.29 nM ^3H-methyltrienolone for PR binding, and either 20 ug 293-GR lysate, 22 ug 293-AR lysate, 20 ug 293-MR lysate or 40 ug 293-PR lysate per well. Competing compounds are added at various concentrations in half-log increments. Non-specific binding is determined in the presence of 500 nM dexamethasone for GR binding, 500 nM aldosterone for MR binding, or 500 nM methyltrienolone for AR and PR binding. The binding reaction (140 μl) is incubated overnight at 4° C., then 70 μl of cold charcoal-dextran buffer (containing per 50 ml of assay buffer, 0.75 g of charcoal and 0.25 g of dextran) is added to each reaction. Plates are mixed 8 minutes on an orbital shaker at 4° C. Plates are then centrifuged at 3,000 rpm at 4° C. for 10 minutes. An aliquot of 120 μl of the mixture is transferred to another 96-well plate and 175 μl of Wallac Optiphase “Hisafe 3” scintillation fluid is added to each well. Plates are sealed and shaken vigorously on an orbital shaker. After an incubation of 2 hrs, plates are read in a Wallac Microbeta counter. […] The Kd for ^3H-dexamethasone for GR binding, ^3H-methyltrienolone for AR binding, ^3H-aldosterone for MR binding, or ^3H-methyltrienolone for PR binding, is determined by saturation binding. The IC50 values for compounds are converted to Ki using Cheng-Prusoff equation and the Kd determined by saturation binding assay.

[2] = biological target: T2, human AR (androgen receptor) (Homo sapiens, UniProt P10275); test: AR competition binding assay (HEK293 cell lysate); conditions: 0.36 nM 3H-methyltrienolone, 293-AR lysate
T2 construct: expressed in transfected cells; host or cells: HEK293
T2 sequence (P10275 1-920): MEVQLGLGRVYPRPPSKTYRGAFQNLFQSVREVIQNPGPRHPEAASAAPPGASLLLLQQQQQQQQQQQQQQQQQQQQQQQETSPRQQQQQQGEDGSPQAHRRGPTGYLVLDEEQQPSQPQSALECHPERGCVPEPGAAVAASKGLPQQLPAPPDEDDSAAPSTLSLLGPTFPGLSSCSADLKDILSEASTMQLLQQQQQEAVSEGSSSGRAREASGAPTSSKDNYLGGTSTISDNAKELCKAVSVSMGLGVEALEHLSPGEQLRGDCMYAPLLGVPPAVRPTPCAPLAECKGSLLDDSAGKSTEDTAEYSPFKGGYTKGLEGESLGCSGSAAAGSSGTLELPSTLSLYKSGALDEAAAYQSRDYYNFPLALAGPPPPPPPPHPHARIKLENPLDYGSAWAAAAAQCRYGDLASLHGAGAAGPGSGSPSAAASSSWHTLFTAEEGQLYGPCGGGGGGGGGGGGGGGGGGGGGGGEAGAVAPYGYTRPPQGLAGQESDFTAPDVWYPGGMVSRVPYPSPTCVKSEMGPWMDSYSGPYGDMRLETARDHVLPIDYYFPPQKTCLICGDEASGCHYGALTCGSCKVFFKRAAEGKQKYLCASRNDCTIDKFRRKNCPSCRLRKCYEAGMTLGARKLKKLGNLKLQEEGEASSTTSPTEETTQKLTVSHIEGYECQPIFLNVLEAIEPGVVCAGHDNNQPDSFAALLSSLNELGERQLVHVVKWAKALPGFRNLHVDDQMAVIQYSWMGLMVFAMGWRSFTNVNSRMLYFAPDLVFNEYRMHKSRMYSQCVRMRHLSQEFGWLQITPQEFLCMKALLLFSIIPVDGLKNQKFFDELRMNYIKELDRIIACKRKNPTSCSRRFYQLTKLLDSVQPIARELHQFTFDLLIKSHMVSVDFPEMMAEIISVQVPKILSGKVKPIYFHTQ
Procedure: as §1

| Structure (SMILES) | Ki [1] [nM] | Ki [2] [nM] |
| --- | --- | --- |
| CC(C)n1cc(-c2ccc(Cl)cc2)c2ccc(NS(C)(=O)=O)cc21 [Example 36, N-[3-(4-Chloro-phenyl)-1-isopropyl-1H-indol-6-yl]-methanesulfonamide] | > 1000 | 500 to 1000 |
| CC(C)n1cc(-c2ccc(O)cc2)c2ccc(NS(C)(=O)=O)cc21 [Example 93, N-[3-(4-Hydroxy-phenyl)-1-isopropyl-1H-indol-6-yl]-methanesulfonamide] | 100 to 500 | 100 to 500 |
| CC(C)n1cc(-c2ccc3c(c2)COC3=O)c2ccc(NS(C)(=O)=O)cc21 [Example 97, N-[1-Isopropyl-3-(1-oxo-1,3-dihydro-isobenzofuran-5-yl)-1H-indol-6-yl]-methanesulfonamide] | > 1000 | > 1000 |

Continued, values first:

| Ki [1] [nM] | Ki [2] [nM] | Structure (SMILES) |
| --- | --- | --- |
| 500 to 1000 | 500 to 1000 | CC(C)n1cc(-c2ccc(C#N)c(F)c2)c2ccc(NS(C)(=O)=O)cc21 [Example 38, N-[3-(4-Cyano-3-fluoro-phenyl)-1-isopropyl-1H-indol-6-yl]-methanesulfonamide] |
| > 1000 | > 1000 | CC(C)n1cc(-c2ccc3c(cnn3C)c2)c2ccc(NS(C)(=O)=O)cc21 [Example 107, N-[1-Isopropyl-3-(1-methyl-1H-indazol-5-yl)-1H-indol-6-yl]-methanesulfonamide] |
